Earlier results, collected in patent US4285947A, “Aldehyde adducts of triamterene” (INTERx Research Corporation, priority 1980, dated 1981).
Values after ≈ are worked out from the molar mass of the structure shown.

Key:
[1] = not given; remark: listed apart in the source
[2] = following the recommended clinical dose

aqueous solubility: 45 µg/mL (≈ 178 µM)
solubility in lipid-like solvents [1]: limited solubility
plasma and urine concentration [2]: extremely low
SMILES: Nc1nc(N)c2nc(-c3ccccc3)c(N)nc2n1 [triamterene, 2,4,7-triamino-6-phenylpteridine]
